The nature of data set [1]: Pharmacokinetic test in rats in vivo, plasma concentration after oral administration. The conditions noted are these: for Cmax: 10 mg/kg, intragastric, suspension in sodium carboxymethyl cellulose solution. How it is done:
Experimental method: SD rats were used as experimental animals and intragastrically administrated with a milky white suspension prepared from a sodium carboxymethyl cellulose solution at a dose of 10 mg/kg. After the intragastric administration, blood was collected at the time points of 0.17, 0.33, 0.5, 1, 1.5, 2, 4, 6, 8, 12 and 24 h. 0.3 ml of whole blood was taken and subjected to centrifugation, and then 0.1 ml of plasma was taken and analyzed by LC-MS.

Data set [2] can be described thus: Equilibrium solubility of crystal forms in purified water (HPLC). In kind it is physicochemical. The conditions noted are these: for Water solubility: saturated (equilibrium) solubility in purified water, room temperature, HPLC, methanesulfonate; for Solubility in water (in words): summary of Table 8. From the text: Preparation of a standard curve: Appropriate amounts of a series of compounds were accurately weighed, placed in volumetric flasks, and dissolved and diluted with an appropriate amount of acetonitrile to a certain scale to serve as stock solutions. Appropriate amounts of the stock solutions were accurately weighed, placed in volumetric flasks, diluted with a mobile phase to a certain scale, and uniformly shaken to obtain a series of high-concentration standard solutions and low-concentration standard solutions. The standard solutions were separately sampled in the sequence from low concentration to high concentration, and peak areas were recorded. Linear regression was conducted with the compound concentration as the abscissa and the peak area as the ordinate to obtain a linear regression equation of a compound, namely, a standard curve of the solubility of the compound as shown in the formula (I).
Determination of equilibrium solubility: An excess amount of a compound was placed in a 10 mL plugged EP tube, 2 mL of purified water was added, and the compound was subjected to ultrasonic treatment at room temperature for 15 min, followed by standing for 20 min. The above operations were repeated for 4 times, centrifugation was conducted at 3,000 r/min for 10 min, and a supernatant was taken (after the supernatant was properly diluted with a solvent) and filtered through a microporous filtration membrane. A filtrate was taken for HPLC detection, and the peak area was recorded and substituted into the standard curve to calculate the saturated solubility of each compound in water.

Data set [3] can be described thus: Pharmacokinetic test in dogs in vivo, plasma concentration after oral administration. The conditions noted are these: Beagles. The protocol:
Experimental method: Beagles were used as experimental animals and intragastrically administrated with a milky white suspension prepared from a sodium carboxymethyl cellulose solution at a dose of 10 mg/kg. After the intragastric administration, blood was collected at the time points of 0, 0.5, 1, 2, 3, 4, 6, 8 and 24 h. 0.3 ml of whole blood was taken and subjected to centrifugation, and then 0.1 ml of plasma was taken and analyzed by LC-MS.

[4] abbreviates: SD, rat, plasma, po, mean n=3, read-out: Cmax.
The mark [5] stands for this setting: SD rats, mean n=3, methanesulfonate.

Where two headings read alike, the source gives them in different places.

Data on 8 compounds can be found in US12692270B2, “Crystal form of casein kinase 1ϵ inhibitor and preparation method and use thereof” (HANGZHOU HEALZEN THERAPEUTICS CO., LTD., priority 2020, dated 2026).

A word on the Cmax: it is the highest concentration seen after dosing. In the case of `COc1ccc(-c2nn([C@@H](C)c3nc4cccc(Cl)c4c(=O)n3-c3ccccc3)c3ncnc(N)c23)c(F)c1F` [(S)-2-(1-(4-amino-3-(2,3-difluoro-4-methoxyphenyl)-1H-pyrazolo[3,4-d]pyrimidin-1-yl)ethyl)-5-chloro-3-phenylquinazoline-4(3H)-one], the Cmax in data set [1] (setting [4]) came out at 456 ng/mL.
As for `COc1ccc(-c2nn([C@@H](C)c3nc4cccc(Cl)c4c(=O)n3-c3ccccc3)c3ncnc(N)c23)c(F)c1F.CS(=O)(=O)O` [Crystal form A, (S)-2-(1-(4-amino-3-(2,3-difluoro-4-methoxyphenyl)-1H-pyrazolo[3,4-d]pyrimidin-1-yl)ethyl)-5-chloro-3-phenylquinazoline-4(3H)one methanesulfonate], in data set [2], the Water solubility was <1.0 µg/mL and the “Solubility in water (in words)” value is on record as “soluble in water”.
On to `COc1ccc(-c2nn([C@@H](C)c3nc4cccc(Cl)c4c(=O)n3-c3ccccc3)c3ncnc(N)c23)c(F)c1F.CS(=O)(=O)O` [Crystal form B, (S)-2-(1-(4-amino-3-(2,3-difluoro-4-methoxyphenyl)-1H-pyrazolo[3,4-d]pyrimidin-1-yl)ethyl)-5-chloro-3-phenylquinazoline-4(3H)one methanesulfonate], for which, in data set [2], the Water solubility came to 2.50 µg/mL and the “Solubility in water (in words)” value was “soluble in water”.
For the compound `COc1ccc(-c2nn([C@@H](C)c3nc4cccc(Cl)c4c(=O)n3-c3ccccc3)c3ncnc(N)c23)c(F)c1F.CS(=O)(=O)O` [Crystal form C, (S)-2-(1-(4-amino-3-(2,3-difluoro-4-methoxyphenyl)-1H-pyrazolo[3,4-d]pyrimidin-1-yl)ethyl)-5-chloro-3-phenylquinazoline-4(3H)one methanesulfonate], in data set [1] (setting [4]), the highest concentration (Cmax) is 1640 ng/mL. Also, in data set [2], the Water solubility was 3.84 µg/mL and the “Solubility in water (in words)” value is on record as “soluble in water”.
In data set [1] (setting [5]), `COc1ccc(-c2nn([C@@H](C)c3nc4cccc(Cl)c4c(=O)n3-c3ccccc3)c3ncnc(N)c23)c(F)c1F.CS(=O)(=O)O` [Crystal form D, (S)-2-(1-(4-amino-3-(2,3-difluoro-4-methoxyphenyl)-1H-pyrazolo[3,4-d]pyrimidin-1-yl)ethyl)-5-chloro-3-phenylquinazoline-4(3H)one methanesulfonate] came in with a maximum concentration (Cmax) of 1866.0 ng/mL. Further, in data set [2], the Water solubility is 4.60 µg/mL and the “Solubility in water (in words)” value is “soluble in water”.
With `COc1ccc(-c2nn([C@@H](C)c3nc4cccc(Cl)c4c(=O)n3-c3ccccc3)c3ncnc(N)c23)c(F)c1F.CS(=O)(=O)O` [Crystal form E, (S)-2-(1-(4-amino-3-(2,3-difluoro-4-methoxyphenyl)-1H-pyrazolo[3,4-d]pyrimidin-1-yl)ethyl)-5-chloro-3-phenylquinazoline-4(3H)one methanesulfonate], in data set [2], the Water solubility came to 1.25 µg/mL and the “Solubility in water (in words)” value was “soluble in water”.
The term AUC denotes the area under the concentration-time curve, a measure of exposure. A higher AUC goes with more exposure. In data set [1] (setting [5]), `COc1ccc(-c2nn([C@@H](C)c3nc4cccc(Cl)c4c(=O)n3-c3ccccc3)c3ncnc(N)c23)c(F)c1F.CS(=O)(=O)O` [Crystal form F, (S)-2-(1-(4-amino-3-(2,3-difluoro-4-methoxyphenyl)-1H-pyrazolo[3,4-d]pyrimidin-1-yl)ethyl)-5-chloro-3-phenylquinazoline-4(3H)one methanesulfonate] registered a Cmax of 2855.31 ng/mL. In data set [3] (beagle, dog, plasma, po, intragastric, 10 mg/kg, suspension in sodium carboxymethyl cellulose solution, mean n=2, NA = value lower than the lower detection limit), this compound registered an AUC of 3820 ng·h/mL. In data set [2], the Water solubility stood at 24.80 µg/mL and the “Solubility in water (in words)” value is reported as “soluble in water”.
In the case of `COc1ccc(-c2nn([C@@H](C)c3nc4cccc(Cl)c4c(=O)n3-c3ccccc3)c3ncnc(N)c23)c(F)c1F.CS(=O)(=O)O` [compound as shown in the formula (I), (S)-2-(1-(4-amino-3-(2,3-difluoro-4-methoxyphenyl)-1H-pyrazolo[3,4-d]pyrimidin-1-yl)ethyl)-5-chloro-3-phenylquinazoline-4(3H)one methanesulfonate], the “Pharmacokinetic properties compared with the free alkali (in words)” value in data set [1] (SD rats, oral 10 mg/kg, crystal forms C, D and F investigated) is “significantly improved”; in data set [3] (oral 10 mg/kg, crystal form F investigated), “significantly improved”.
